Measurements reported in patent US5571804A, “Cephalosporin antibiotics” (priority 1993, dated 1996).

Columns and labels:
[1] = system: Staphylococcus aureus 241; experiment: MIC, two-fold agar dilution; type: cell-based; conditions: Muller-Hinton agar, 37° C., 20 hours
Staphylococcus aureus 77 = experiment: MIC, two-fold agar dilution; type: cell-based; conditions: Muller-Hinton agar, 37° C., 20 hours
E. coli 10536 = experiment: MIC, two-fold agar dilution; type: cell-based; conditions: Muller-Hinton agar, 37° C., 20 hours
[2] = system: Pseudomonas aeruginosa 6065; experiment: MIC, two-fold agar dilution; type: cell-based; conditions: Muller-Hinton agar, 37° C., 20 hours
[3] = system: Citrobacter diversus 2046E; experiment: MIC, two-fold agar dilution; type: cell-based; conditions: Muller-Hinton agar, 37° C., 20 hours
Proteus vularis 6059A = experiment: MIC, two-fold agar dilution; type: cell-based; conditions: Muller-Hinton agar, 37° C., 20 hours
[4] = system: Staphylococcus aureus 6538P; experiment: MIC, two-fold agar dilution; type: cell-based; conditions: Muller-Hinton agar, 37° C., 20 hours
[5] = system: Pseudomonas aeruginosa 1912E; experiment: MIC, two-fold agar dilution; type: cell-based; conditions: Muller-Hinton agar, 37° C., 20 hours
[6] = system: Staphylococcus aureus giorgio; experiment: MIC, two-fold agar dilution; type: cell-based; conditions: Muller-Hinton agar, 37° C., 20 hours
[7] = system: Pseudomonas aeruginosa 10145; experiment: MIC, two-fold agar dilution; type: cell-based; conditions: Muller-Hinton agar, 37° C., 20 hours
[8] = system: Salmonella typhimurium 14028A; experiment: MIC, two-fold agar dilution; type: cell-based; conditions: Muller-Hinton agar, 37° C., 20 hours
[9] = system: Serratia marcescens 1826E; experiment: MIC, two-fold agar dilution; type: cell-based; conditions: Muller-Hinton agar, 37° C., 20 hours
[10] = system: Streptococcus laecalis 29212A; experiment: MIC, two-fold agar dilution; type: cell-based; conditions: Muller-Hinton agar, 37° C., 20 hours
[11] = pharmakinetic variables in SD rats; conditions: rat, in vivo, iv, 20 mg/kg
Procedure: The pharmakinetic variables were determined using SD rats (.male.) of a body weight of 230±10g as follows. The "S" compound of each of the Examples was injected to femoral vein of 4-5 rats by 20mg/Kg and then blood was collected from femoral artery in 1, 2.5, 5, 10, 20, 40, 60 and 120 min.

[12] = system: Staphylococcus epidermidis 887E; experiment: MIC, two-fold agar dilution; type: cell-based; conditions: Muller-Hinton agar, 37° C., 20 hours
[13] = system: Acinetobacter calcoaceticus 15473A; experiment: MIC, two-fold agar dilution; type: cell-based; conditions: Muller-Hinton agar, 37° C., 20 hours
E. coli 3190Y = experiment: MIC, two-fold agar dilution; type: cell-based; conditions: Muller-Hinton agar, 37° C., 20 hours
[14] = system: Klebsiella aerogenes K1 + 1082E; experiment: MIC, two-fold agar dilution; type: cell-based; conditions: Muller-Hinton agar, 37° C., 20 hours
[15] = system: Enterobacter cloacae IND + VE 1194E; experiment: MIC, two-fold agar dilution; type: cell-based; conditions: Muller-Hinton agar, 37° C., 20 hours
Enterobacter cloacae P99 = experiment: MIC, two-fold agar dilution; type: cell-based; conditions: Muller-Hinton agar, 37° C., 20 hours
E. coli TEM7 3457E = experiment: MIC, two-fold agar dilution; type: cell-based; conditions: Muller-Hinton agar, 37° C., 20 hours
E. coli 851E = experiment: MIC, two-fold agar dilution; type: cell-based; conditions: Muller-Hinton agar, 37° C., 20 hours
E. coli TEM1 1193E = experiment: MIC, two-fold agar dilution; type: cell-based; conditions: Muller-Hinton agar, 37° C., 20 hours
E. coli TEM3 3455E = experiment: MIC, two-fold agar dilution; type: cell-based; conditions: Muller-Hinton agar, 37° C., 20 hours
E. coli TEM5 3739E = experiment: MIC, two-fold agar dilution; type: cell-based; conditions: Muller-Hinton agar, 37° C., 20 hours
E. coli TEM9 2639E = experiment: MIC, two-fold agar dilution; type: cell-based; conditions: Muller-Hinton agar, 37° C., 20 hours
[16] = system: Klebsiella aerogenes SHV-1 1976E; experiment: MIC, two-fold agar dilution; type: cell-based; conditions: Muller-Hinton agar, 37° C., 20 hours

SMILES	minimal inhibitory concentration (MIC) [1]	minimal inhibitory concentration (MIC) (Staphylococcus aureus 77)	minimal inhibitory concentration (MIC) (E. coli 10536)	minimal inhibitory concentration (MIC) [2]	minimal inhibitory concentration (MIC) [3]	minimal inhibitory concentration (MIC) (Proteus vularis 6059A)	minimal inhibitory concentration (MIC) [4]	minimal inhibitory concentration (MIC) [5]	minimal inhibitory concentration (MIC) [6]	minimal inhibitory concentration (MIC) [7]	minimal inhibitory concentration (MIC) [8]	minimal inhibitory concentration (MIC) [9]	minimal inhibitory concentration (MIC) [10]	minimal inhibitory concentration (MIC) [12]	minimal inhibitory concentration (MIC) [13]	minimal inhibitory concentration (MIC) (E. coli 3190Y)	minimal inhibitory concentration (MIC) [14]	minimal inhibitory concentration (MIC) [15]	minimal inhibitory concentration (MIC) (Enterobacter cloacae P99)	minimal inhibitory concentration (MIC) (E. coli TEM7 3457E)	other results
CC(C)(O/N=C(\C(=O)N[C@@H]1C(=O)N2C(C(=O)[O-])=C(C[n+]3ccccc3)CS[C@H]12)c1csc(N)n1)C(=O)O [Ceftazidime, reference compound]	> 128	32	0.13	16	0.5	0.063	16	1	4	2	0.25	0.25	> 128	> 128	2	0.063	0.25				AUC at 2 h [11]: 31100 ng·h/mL
Nc1cc(N)nc(SCC2=C(C(=O)O)N3C(=O)[C@@H](NC(=O)/C(=N\O[C@H](C(=O)O)c4ccc(O)c(O)c4)c4csc(N)n4)[C@H]3SC2)n1 [Compound I-1S, 7-[(Z)-2-(aminothiazol-4-yl)-2-(α-carboxy-3,4-dihydroxybenzyloxyimino)acetamido]-3-(4,6-diamino-pyrimidine-2-yl) thiomethyl-3-cephem-4-carboxylate]	64	8	≤ 0.008	0.25	0.063	0.13	2	0.25	1	0.13	0.016	0.25	4	32	0.13	0.031	0.031	2	16	≤ 0.008	minimal inhibitory concentration (MIC) (E. coli 851E): 0.031; minimal inhibitory concentration (MIC) (E. coli TEM1 1193E): 0.031; minimal inhibitory concentration (MIC) (E. coli TEM3 3455E): 0.016; minimal inhibitory concentration (MIC) (E. coli TEM5 3739E): 0.063; AUC at 2 h [11]: 61600 ng·h/mL; half-life [11]: 1.03 h; minimal inhibitory concentration (MIC) (E. coli TEM9 2639E): 0.25; minimal inhibitory concentration (MIC) [16]: 0.13
Nc1cc(SCC2=C(C(=O)O)N3C(=O)[C@@H](NC(=O)/C(=N\O[C@@H](C(=O)O)c4ccc(O)c(O)c4)c4csc(N)n4)[C@H]3SC2)nc(N)n1 [Compound I-6R, 7-[(Z)-2-(aminothiazol-4-yl)-2-(α-carboxy-3,4-dihydroxybenzyloxyimino)acetamido]-3-(2,6-diamino-pyrimidine-4-yl)thiomethyl-3-cephem-4-carboxylate]	64	16	0.016	1	0.13	0.25	1	0.25	1	0.25	0.13	0.5	4	32	0.25	0.063	0.25	4	8	0.016	minimal inhibitory concentration (MIC) (E. coli 851E): 0.063; minimal inhibitory concentration (MIC) (E. coli TEM1 1193E): 0.063; minimal inhibitory concentration (MIC) (E. coli TEM3 3455E): 0.031; minimal inhibitory concentration (MIC) (E. coli TEM5 3739E): 0.063; minimal inhibitory concentration (MIC) (E. coli TEM9 2639E): 0.25; minimal inhibitory concentration (MIC) [16]: 0.25
Nc1cc(SCC2=C(C(=O)O)N3C(=O)[C@@H](NC(=O)/C(=N\O[C@H](C(=O)O)c4ccc(O)c(O)c4)c4csc(N)n4)[C@H]3SC2)nc(N)n1 [Compound I-6S, 7-[(Z)-2-(aminothiazol-4-yl)-2-(α-carboxy-3,4-dihydroxybenzyloxyimino)acetamido]-3-(2,6-diamino-pyrimidine-4-yl)thiomethyl-3-cephem-4-carboxylate]	64	8	≤ 0.008	0.25	0.063	0.13	1		1	0.25	0.016	0.13	2	32	0.13	0.031	0.031	2	8	≤ 0.008	minimal inhibitory concentration (MIC) (E. coli 851E): 0.031; minimal inhibitory concentration (MIC) (E. coli TEM1 1193E): 0.031; minimal inhibitory concentration (MIC) (E. coli TEM3 3455E): 0.016; minimal inhibitory concentration (MIC) (E. coli TEM5 3739E): 0.063; AUC at 2 h [11]: 59800 ng·h/mL; half-life [11]: 1.03 h; minimal inhibitory concentration (MIC) (E. coli TEM9 2639E): 0.13; minimal inhibitory concentration (MIC) [16]: 0.13
Nc1cc(SCC2=C(C(=O)O)N3C(=O)[C@@H](NC(=O)/C(=N\O[C@@H](C(=O)O)c4ccc(O)c(O)c4)c4csc(N)n4)[C@H]3SC2)ncn1 [Compound I-7R, 7[-(Z)-2-(aminothiazol-4-yl)-2-(α-carboxy-3,4-dihydroxybenzyloxyimino)acetamido]-3-(6-amino-pyrimidine-4-yl)thiomethyl-3cephem-4-carboxylate]	128	8	0.016	4	0.13	0.25	2	0.25	2	2	0.13	0.5	4	32	0.25	0.063	0.25	4	8	0.031	minimal inhibitory concentration (MIC) (E. coli 851E): 0.13; minimal inhibitory concentration (MIC) (E. coli TEM1 1193E): 0.13; minimal inhibitory concentration (MIC) (E. coli TEM3 3455E): 0.031; minimal inhibitory concentration (MIC) (E. coli TEM5 3739E): 0.063; minimal inhibitory concentration (MIC) (E. coli TEM9 2639E): 0.25; minimal inhibitory concentration (MIC) [16]: 0.25
